PubChem BioAssay AID1259407 (Chemical Carcinogenesis Research Information System (CCRIS), 2018)
Calls of active or inactive are those of the source. The rule behind the calls is not given here.

Test system: CCRIS mutagenicity, Ames/micronucleus/aberration tests
Experiment: CCRIS mutagenicity studies
Details: Test System: AMES SALMONELLA TYPHIMURIUM
[1] = Strain/Indicator: TA97, Metabolic Activation: NONE, Method: PREINCUBATION
[2] = Strain/Indicator: TA98, Metabolic Activation: NONE, Method: PREINCUBATION
[3] = Strain/Indicator: TA100, Metabolic Activation: NONE, Method: PREINCUBATION
[4] = Strain/Indicator: TA1535, Metabolic Activation: NONE, Method: PREINCUBATION

CCCCC(CC)COCC1CO1 (centres undefined) was tested, and the mutagenic call (Strain/Indicator: TA97, Metabolic Activation: HAMSTER, LIVER, S-9, AROCLOR 1254 (10%), Method: PREINCUBATION) was “inactive; negative”, the mutagenic call [1] was “inactive; negative” and the mutagenic call (Strain/Indicator: TA97, Metabolic Activation: RAT, LIVER, S-9, AROCLOR 1254 (10%), Method: PREINCUBATION) was “inactive; negative”. The mutagenic call (Strain/Indicator: TA98, Metabolic Activation: HAMSTER, LIVER, S-9, AROCLOR 1254 (10%), Method: PREINCUBATION) was “inactive; negative”, the mutagenic call [2] was “inactive; negative” and the mutagenic call (Strain/Indicator: TA98, Metabolic Activation: RAT, LIVER, S-9, AROCLOR 1254 (10%), Method: PREINCUBATION) was “inactive; negative”. For the same molecule, the mutagenic call (Strain/Indicator: TA100, Metabolic Activation: HAMSTER, LIVER, S-9, AROCLOR 1254 (10%), Method: PREINCUBATION) was “inactive; negative”, the mutagenic call [3] was “inactive; negative” and the mutagenic call (Strain/Indicator: TA100, Metabolic Activation: RAT, LIVER, S-9, AROCLOR 1254 (5 OR 30%), Method: PREINCUBATION) was “inactive; negative”. The mutagenic call (Strain/Indicator: TA100, Metabolic Activation: RAT, LIVER, S-9, AROCLOR 1254 (30%), Method: PREINCUBATION) was “inactive; negative”, the mutagenic call (Strain/Indicator: TA1535, Metabolic Activation: HAMSTER, LIVER, S-9, AROCLOR 1254 (10%), Method: PREINCUBATION) was “inactive; negative” and the mutagenic call [4] was “inactive; negative”. The mutagenic call (Strain/Indicator: TA1535, Metabolic Activation: RAT, LIVER, S-9, AROCLOR 1254 (5% & 10%), Method: PREINCUBATION) was “active; positive”, the mutagenic call (Strain/Indicator: TA1535, Metabolic Activation: RAT, LIVER, S-9, AROCLOR 1254 (5 OR 10%), Method: PREINCUBATION) was “active; positive” and the mutagenic call (Strain/Indicator: TA1535, Metabolic Activation: RAT, LIVER, S-9, AROCLOR 1254 (30%), Method: PREINCUBATION) was “inactive; negative”.
In the case of Cn1ccc2c3c(ccc4ccc(O)cc43)ccc21, the mutagenic call (Strain/Indicator: TA98, Metabolic Activation: RAT, LIVER, S-9, AROCLOR 1254, Method: STANDARD PLATE) is reported as “inactive; negative” and the mutagenic call (Strain/Indicator: TA98, Metabolic Activation: RAT, LIVER, S-9, AROCLOR, Method: STANDARD PLATE) is reported as “active; positive”.
In the case of CCCCCCC[CH2][Sn]([CH2]CCCCCCC)([S]CC(=O)OCCCCCC(C)C)[S]CC(=O)OCCCCCC(C)C, the mutagenic call (Strain/Indicator: TA97, Metabolic Activation: HAMSTER, LIVER, S-9, AROCLOR 1254 (10 OR 30%), Method: PREINCUBATION) is reported as “inactive; negative”, the mutagenic call [1] is reported as “inactive; negative” and the mutagenic call (Strain/Indicator: TA97, Metabolic Activation: RAT, LIVER, S-9, AROCLOR 1254 (10 OR 30%), Method: PREINCUBATION) is reported as “inactive; negative”. For the same molecule, the mutagenic call (Strain/Indicator: TA98, Metabolic Activation: HAMSTER, LIVER, S-9, AROCLOR 1254 (10 OR 30%), Method: PREINCUBATION) was “inactive; negative”, the mutagenic call [2] was “inactive; negative” and the mutagenic call (Strain/Indicator: TA98, Metabolic Activation: RAT, LIVER, S-9, AROCLOR 1254 (10 OR 30%), Method: PREINCUBATION) was “inactive; negative”. For the same molecule, the mutagenic call (Strain/Indicator: TA100, Metabolic Activation: HAMSTER, LIVER, S-9, AROCLOR 1254 (10 OR 30%), Method: PREINCUBATION) was “inactive; negative”, the mutagenic call [3] was “active; positive” and the mutagenic call (Strain/Indicator: TA100, Metabolic Activation: RAT, LIVER, S-9, AROCLOR 1254 (10 OR 30%), Method: PREINCUBATION) was “inactive; negative”. The mutagenic call (Strain/Indicator: TA1535, Metabolic Activation: HAMSTER, LIVER, S-9, AROCLOR 1254 (10 OR 30%), Method: PREINCUBATION) was “inactive; negative”, the mutagenic call [4] was “inactive; negative” and the mutagenic call (Strain/Indicator: TA1535, Metabolic Activation: RAT, LIVER, S-9, AROCLOR 1254 (10 OR 30%), Method: PREINCUBATION) was “inactive; negative”.
